Source: PubChem BioAssay (NCI)
Values joined by “and” are separate entries in the source; they are usually repeats but may differ in a detail not shown here. Equal values may be shown once.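 Interpolation was linear, between the two tested concentrations surrounding the appropriate level; five concentrations were tested over 48 hours in 96-well plates. Here, GI50 denotes the concentration required for 50% inhibition of growth. At the TGI there is no net growth.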

Columns and labels:
Experiment in all cases: NCI-60 cell line screen, 48 h
[1] = system: CCRF-CEM leukemia
[2] = system: HCT-116 colon
[3] = system: K-562 leukemia
[4] = system: NCI-H226 lung
[5] = system: OVCAR-3 ovarian
[6] = system: RPMI-8226 leukemia
[7] = system: SK-MEL-5 melanoma
[8] = system: SNB-75 CNS
[9] = system: UACC-257 melanoma
[10] = system: ACHN renal

Compound: O=c1[nH]c(=O)c2cc3cc(C4CC(O)C(CO)O4)ccc3cc2[nH]1 (configuration not stated)
- GI50 [1]: > 100 µM
- TGI [1]: > 100 µM
- GI50 [2]: > 100 µM
- TGI [2]: > 100 µM
- GI50 [3]: > 100 µM
- TGI [3]: > 100 µM
- GI50 [4]: > 100 µM
- TGI [4]: > 100 µM
- GI50 [5]: > 100 µM
- TGI [5]: > 100 µM
- GI50 [6]: > 100 µM
- TGI [6]: > 100 µM
- GI50 [7]: > 100 µM
- TGI [7]: > 100 µM
- GI50 [8]: 34.5 µM
- TGI [8]: > 100 µM
- GI50 [9]: > 100 µM
- TGI [9]: > 100 µM

Compound: COc1ccc(Nc2cc(C)nc(NCc3ccccc3)n2)cc1
- GI50 [10]: 4.44 µM
- TGI [10]: 17.7 µM
- GI50 [1]: 3.06 µM
- TGI [1]: 23.7 µM
- GI50 [2]: 2.49 µM
- TGI [2]: 13 µM
- GI50 [3]: 2.69 µM
- TGI [3]: 15.3 µM
- GI50 [4]: 6.14 µM
- TGI [4]: 21.3 µM
- GI50 [5]: 7.27 µM
- TGI [5]: 24.5 µM
- GI50 [6]: 1.81 µM
- TGI [6]: 7.41 µM
- GI50 [7]: 1.36 µM
- TGI [7]: 2.84 µM
- GI50 [8]: 4.65 µM
- TGI [8]: 18.8 µM
- GI50 [9]: 3.18 µM
- TGI [9]: 13.3 µM

Compound: O=C(NC(=O)c1ccccc1[N+](=O)[O-])Nc1ccc(Oc2ncc(Cl)cn2)c([N+](=O)[O-])c1
- TGI [10]: > 100 µM
- TGI [1]: > 100 µM
- TGI [2]: > 100 µM
- TGI [3]: > 100 µM
- TGI [4]: 1.07 µM
- TGI [5]: > 7.67 µM
- TGI [6]: > 100 µM
- TGI [7]: > 14.1 µM
- TGI [8]: 0.313 µM
- TGI [9]: > 100 µM

Compound: [Cl][Hg][c]1ccc(Cl)s1
- GI50 [10]: 1.78 µM
- TGI [10]: 3.33 µM
- GI50 [1]: 0.326 µM
- TGI [1]: 3.99 µM
- GI50 [2]: 1.49 µM
- TGI [2]: 2.97 µM
- GI50 [3]: 0.729 µM
- TGI [3]: 7.29 µM
- GI50 [4]: 4.71 µM
- TGI [4]: 28.6 µM
- GI50 [6]: 2.23 µM
- TGI [6]: 6.58 µM
- GI50 [7]: 2.45 µM
- TGI [7]: 7.34 µM
- GI50 [8]: 3.57 µM
- TGI [8]: 17.3 µM
- GI50 [9]: 1.54 µM
- TGI [9]: 3.04 µM

Compound: O=C(O)C(C(=O)O)P(=S)(S)c1ccccc1 (configuration not stated)
- TGI [10]: > 100 µM
- TGI [1]: > 100 µM
- TGI [2]: > 100 µM
- TGI [3]: > 100 µM
- TGI [4]: > 100 µM
- TGI [5]: > 100 µM
- TGI [6]: > 100 µM
- TGI [7]: > 31.6 µM
- TGI [8]: > 100 µM
- TGI [9]: > 100 µM

Compound: O=c1c2ccccc2nc(/C=C(\O)c2ccncc2)n1-c1ccc(Cl)cc1
- TGI [10]: > 100 µM
- TGI [1]: > 100 µM
- TGI [2]: > 100 µM
- TGI [3]: > 100 µM
- TGI [4]: > 100 µM
- TGI [5]: > 100 µM
- TGI [6]: > 100 µM
- TGI [7]: > 100 µM
- TGI [8]: 61.7 µM
- TGI [9]: > 100 µM

Compound: C=C1C(=O)O[C@H]2[C@H]1CC/C(C=Nc1c(N)cc(C(F)(F)F)cc1C(F)(F)F)=C\CC[C@@]1(C)O[C@@H]21
- GI50 [10]: 1.26 µM
- TGI [10]: 2.68 µM
- GI50 [1]: 0.55 µM
- TGI [1]: > 100 µM
- GI50 [2]: 1.06 µM
- TGI [2]: 2.52 µM
- GI50 [3]: 1.24 µM
- TGI [3]: 9.53 µM
- GI50 [4]: 1.43 µM
- TGI [4]: 4.11 µM
- GI50 [5]: 1.41 µM
- TGI [5]: 2.86 µM
- GI50 [6]: 0.441 µM
- TGI [6]: 3.26 µM
- GI50 [7]: 1.35 µM
- TGI [7]: 2.67 µM
- GI50 [8]: 1.78 µM
- TGI [8]: 15.4 µM
- GI50 [9]: 1.59 µM
- TGI [9]: 3.14 µM

Compound: Cn1nc(C(F)(F)F)cc1-c1c[nH]c(OCc2ccc(Cl)cc2)c(-c2ccc(Cl)c(C(F)(F)F)c2)c1=O
- GI50 [10]: 1.28 µM
- TGI [10]: 4.23 µM
- GI50 [1]: 0.998 µM
- TGI [1]: > 50 µM
- GI50 [2]: 0.927 µM
- TGI [2]: 4.51 µM
- GI50 [3]: 0.724 µM
- TGI [3]: > 50 µM
- GI50 [4]: 1.26 µM
- TGI [4]: 4.27 µM
- GI50 [5]: 1.19 µM
- TGI [5]: 19.5 µM
- GI50 [6]: 0.547 µM
- TGI [6]: 2.24 µM
- GI50 [7]: 0.568 µM
- TGI [7]: 1.34 µM
- GI50 [8]: 0.872 µM
- TGI [8]: 2.72 µM
- GI50 [9]: 0.919 µM
- TGI [9]: 3.6 µM

Compound: CCOC(=O)C(N=C(c1ccccc1)c1ccccc1)N(C(=O)OC(C)(C)C)C(=O)OC(C)(C)C (configuration not stated)
- TGI [10]: > 100 µM
- TGI [2]: > 100 µM
- TGI [3]: > 100 µM
- TGI [4]: > 100 µM
- TGI [5]: > 100 µM
- TGI [6]: > 100 µM
- TGI [7]: > 100 µM
- TGI [8]: > 100 µM
- TGI [9]: > 100 µM

Compound: CCNC(=O)Nc1ccc(Oc2ccnc3ccc4c(ccn4C)c23)cc1
- GI50 [10]: 59.2 µM
- TGI [10]: > 100 µM
- GI50 [1]: 18.9 µM
- TGI [1]: > 100 µM
- GI50 [2]: 21.2 µM
- TGI [2]: > 100 µM
- GI50 [3]: 47.4 µM
- TGI [3]: > 100 µM
- GI50 [4]: 28.2 µM
- TGI [4]: 72.8 µM
- GI50 [5]: 19.7 µM
- TGI [5]: 42.2 µM
- GI50 [6]: > 100 µM
- TGI [6]: > 100 µM
- GI50 [7]: 75.5 µM
- TGI [7]: > 100 µM
- GI50 [8]: 59.9 µM
- TGI [8]: > 100 µM
- GI50 [9]: 28.4 µM
- TGI [9]: 86.2 µM

Compound: N#Cc1c(N)n2c(nc1=Nc1ccc(Cl)cc1)sc1cc(Cl)ccc12
- GI50 [10]: 9 µM
- TGI [10]: > 100 µM
- GI50 [1]: 4.21 µM
- GI50 [2]: 6.12 µM
- TGI [2]: > 100 µM
- GI50 [3]: > 100 µM
- TGI [3]: > 100 µM
- GI50 [4]: 6.71 µM and 2.39 µM
- TGI [4]: 9 µM
- GI50 [5]: 6.11 µM
- TGI [5]: > 100 µM
- GI50 [6]: 1.26 µM
- TGI [6]: 9.27 µM
- GI50 [7]: 8 µM
- GI50 [8]: 5.07 µM
- TGI [8]: > 100 µM
- GI50 [9]: > 100 µM
- TGI [9]: > 100 µM

Compound: c1ccc2cc(NCNc3ccc4ccccc4c3)ccc2c1
- TGI [10]: 38 µM
- TGI [1]: 62.6 µM
- TGI [2]: 43.4 µM
- TGI [3]: 38.8 µM
- TGI [4]: 46.5 µM
- TGI [5]: 29.2 µM
- TGI [6]: 29.1 µM
- TGI [7]: 18.5 µM
- TGI [8]: 30.9 µM
- TGI [9]: 20.9 µM

Compound: CN(C)CCCCC(C(=O)CBr)(c1ccccc1)c1ccccc1
- GI50 [10]: 1.48 µM
- TGI [10]: 3.03 µM
- GI50 [1]: 2.06 µM
- TGI [1]: 6.45 µM
- GI50 [3]: 2.08 µM
- TGI [3]: 5.48 µM
- GI50 [4]: 2.38 µM
- TGI [4]: 8.39 µM
- GI50 [5]: 1.37 µM
- TGI [5]: 2.69 µM
- GI50 [6]: 1.96 µM
- TGI [6]: 5.53 µM
- GI50 [7]: 2.53 µM
- TGI [7]: 8.68 µM
- GI50 [8]: 1.87 µM
- TGI [8]: 13.9 µM
- GI50 [9]: 1.96 µM
- TGI [9]: 6.59 µM

Compound: N#C[Se]CCN1C(=O)C2C(C1=O)[C@H]1C=C[C@@H]2S1 (some centres not stated)
- GI50 [10]: 2.07 µM
- TGI [10]: 3.99 µM
- GI50 [1]: 1.84 µM
- TGI [1]: 6.14 µM
- GI50 [2]: 1.85 µM
- TGI [2]: 4.35 µM
- GI50 [3]: 3.24 µM
- TGI [3]: 12 µM
- GI50 [5]: 1.94 µM
- TGI [5]: 3.85 µM
- GI50 [6]: 2.04 µM
- TGI [6]: 4.84 µM
- GI50 [7]: 2.02 µM
- TGI [7]: 4.09 µM
- GI50 [8]: 1.39 µM
- TGI [8]: 3.85 µM
- GI50 [9]: 1.97 µM
- TGI [9]: 5.4 µM

Compound: COC(=O)c1ccccc1N1C(=O)Cc2ccccc2C1=O
- TGI [10]: > 100 µM
- TGI [3]: > 100 µM
- TGI [4]: > 100 µM
- TGI [5]: > 100 µM
- TGI [6]: > 100 µM
- TGI [7]: > 100 µM
- TGI [8]: 74 µM
- TGI [9]: > 100 µM
